Experiments:
[1] = system: formalin-induced paw licking in mice; assay: Formalin-induced paw licking; assay type: in vivo, ICR mice; conditions: mouse, in vivo, ip
Experimental: (§1) The ICR mice (18–22 g) used in this study were purchased from the Experimental Animal Center of SLac-kinda (Changsha, China). The animals were maintained at 20–25°C and freely allowed to standard rodent chow and water ad libitum. Ethical approval for in vivo experiments in animals was approved by the Animal Care and Use Committee (ACUC) at the Hunan Province Animal Management Office (HPAMO).
A formalin test was performed according to the previous method ([Owoyele et al., 2005]). […] The time spent licking the injected paw by each mouse was recorded by a digital stopwatch during Phase I (0–15 min post-injection) and Phase II (15–40 min post-injection).

[2] = system: hot plate test in mice; assay: Hot plate test; assay type: in vivo, ICR mice; conditions: mouse, in vivo
Experimental: as §1
According to a previous method ([Meng et al., 2017]), a hot plate apparatus (model YLS-21A, Jinan, China) maintained at 55 ± 1°C, was used to measure the pain threshold of mice subjected to a thermal stimulus. Each female mouse was placed on hot plate to observe its pain response (hind-paw-licking or jumping) acted as its own control. The mice whose latent response times were shorter than 5 s or longer than 30 s were excluded from the test.

[3] = system: Nav1.4; parameters: method as in Xiao et al., 2008; Goncalves et al., 2018; conditions: skeletal isoform; ref Xiao et al., 2008; Goncalves et al., 2018; cited from earlier work

Compound | analgesic effect on Phase I compared to control [1] | paw licking time, Phase I [1] | paw licking time, Phase II [1] | latency time, hot plate [2] | IC50 [3]
CN1CC[C@]23c4c5ccc(O)c4O[C@H]2[C@@H](O)C=C[C@H]3[C@H]1C5 [morphine, reference compound] | modest analgesia | 64.1 ± 8.5 s | 126.1 ± 19.8 s | 15.2 ± 1.9 s | 
HWTX-IV: spider peptide toxin; printed as μ-TRTX-Hhn1b (HWTX-IV) in b50, μ-TRTX-Hs2a (HWTX-IV) in b51 |  |  |  |  | 400 nM
